# Assay results reported in US20170312253A1 (The Third Affiliated Hospital, Third Military Medical …, priority 2014, published 2017).
# Experiments:
# [1] = system: synapse associated proteins; assay: Western blot of synapse associated proteins; assay type: in vivo; details: AD mice vs control group
# Protocol: APPswe/PS1DE9 (AD) transgenic mice were purchased from Jackson Laboratory, USA (No. 005864), raised in the SPF grade animal house of The Third Affiliated Hospital of The Third Military Medical University. All the processes and correlated experiments applied to the mice were approved and filed with the Animal Ethics Committee of the Third Military Medical University. […] Alternatively, the daily dose for the prophylactic group may be 6.4 mg/kg, and the daily dose for the treatment group may be 12.8 mg/kg. […]
# The enzymes related with Aβ formation and degradation their molecule levels, the levels of hyperphosphprylated Tau proteins, and the levels of synaptic plasticity correlated proteins were all detected with Western blot. […] The blotting was detected with the following antibodies: APP C terminal antibody (171610, Millipore), BACE1 antibody (Millipore), Aβ antibody (6E10, Abcam), Nepriiysin antibody (Millipore), RAGE antibody (Millipore), LRP antibody (5A6, Calbiochem), IDE antibody (epitomics), phosphorylated Tau protein antibody, including pS396 (Signalway), pT231 (Signalway), pS199 (epitomics), pS262 (Abcam), SNAP25 antibody (Millipore), Synaptophysin antibody (Millipore), Synapsin I antibody (Millipore), VAMP1 antibody (Millipore), PSD95 antibody (Millipore), F-actin antibody (Actin) (Sigma-Aldrich). […]
# [2] = system: APPswe/PS1DE9 (AD) transgenic mice; assay: Morris water maze; assay type: in vivo; details: prophylactic and therapeutic test, vs control group
# Protocol: (§1) APPswe/PS1DE9 (AD) transgenic mice were purchased from Jackson Laboratory, USA (No. 005864), raised in the SPF grade animal house of The Third Affiliated Hospital of The Third Military Medical University. All the processes and correlated experiments applied to the mice were approved and filed with the Animal Ethics Committee of the Third Military Medical University. […] Alternatively, the daily dose for the prophylactic group may be 6.4 mg/kg, and the daily dose for the treatment group may be 12.8 mg/kg. Administration from 3-month old to 9-month old is the prophylactic test, and administration from 9-month old to 12-month old is the therapeutic test After reaching a stated time, the mice in each group received behavioral tests according to the method in the follows. Three mice in each group were taken for Golgi staining. […] The entire process was recorded by video, and analyzed with an image analysis software (ANY-maze, Stoelting). In the platform test, the escape path length and escape latency were measured and calculated. In the probe test, the time in each quadrant and the time across platform were measured. […] In the open field test, the mouse was put in the center of an open field for 3 min, and its path was recorded by a tracking system (Limelight, ActiMetrics). At the same time, the numbers of rearing, grooming, defecation and urination of the mouse were recorded.
# [3] = system: APPswe/PS1DE9 (AD) transgenic mice; assay: Open field test; assay type: in vivo; details: AD mice vs control group
# Protocol: as §1
# Aβ fibers (Aβ 42) = Aβ fibers (Aβ 42) (Homo sapiens, UniProt P05067); assay: Thioflavin T fluorescence test, disaggregation of Aβ fibers; assay type: biochemical; details: preformed Aβ fibers, Edaravone 0-100 μM, three days
# [4] = system: Aβ induced oxidative stress; assay: ROS detection; assay type: cell-based
# Protocol: The ROS detection was performed according to the scheme provided by the manufacturer (Cell Biolabs Inc).
# β-secretase (BACE1) = target: T1, β-secretase (BACE1) (Mus musculus, UniProt P56818); assay: β-secretase activity in brain tissues (kit); assay type: in vivo; details: AD mice brain
# T1 construct: The proteins in the brain tissue homogenates were extracted with a RIP A buffer solution; from tissue; host or cells: brain of APPswe/PS1DE9 mice
# Protocol: (§2) APPswe/PS1DE9 (AD) transgenic mice were purchased from Jackson Laboratory, USA (No. 005864), raised in the SPF grade animal house of The Third Affiliated Hospital of The Third Military Medical University. All the processes and correlated experiments applied to the mice were approved and filed with the Animal Ethics Committee of the Third Military Medical University. […] Alternatively, the daily dose for the prophylactic group may be 6.4 mg/kg, and the daily dose for the treatment group may be 12.8 mg/kg. Administration from 3-month old to 9-month old is the prophylactic test, and administration from 9-month old to 12-month old is the therapeutic test After reaching a stated time, the mice in each group received behavioral tests according to the method in the follows. Three mice in each group were taken for Golgi staining. The remaining mice were overly anaesthetized to receive brain anatomy. One side of the cerebral hemisphere was frozen and then for a biochemical analysis, and the other side of the cerebral hemisphere was fixed with 4% paraform for a histological analysis.
# (§3) After homogenating the frozen brain tissues, extraction was conducted with TBS, SDS and formic acid successively. The TBS, SDS and formic acid extracts represent soluble Aβ, loosen senile plaques and compact senile plaques, respectively. […]
# [5] = system: Aβ deposition in the brain; assay: Quantitative analysis of Aβ deposition in the brain (Congo red, 6E10); assay type: in vivo; details: AD mice, Congo red staining and 6E10 immunostaining
# Protocol: as §2
# The compact Aβ plaque was stained and labelled with Congo red. […] The Aβ plaques in the neopallium and hippocampal area were quantitatively analyzed with ImageJ analysis software to obtain the area percentage of the Aβ plaque and the quantities in a unit area.
# α-secretase = α-secretase activity in brain tissues (kit); assay type: in vivo; details: AD mice brain
# Protocol: as §2, §3
# Aβ 40, Aβ 42 = assay: ELISA of Aβ 40, Aβ 42 in brain extracts (TBS, SDS, FA); assay type: in vivo; details: AD mice, 2% SDS and FA extracts
# Protocol: as §2, §3
# [6] = system: cerebral ischemia-reperfusion injury; details: cited from earlier work
# T1 sequence (P56818 46-501): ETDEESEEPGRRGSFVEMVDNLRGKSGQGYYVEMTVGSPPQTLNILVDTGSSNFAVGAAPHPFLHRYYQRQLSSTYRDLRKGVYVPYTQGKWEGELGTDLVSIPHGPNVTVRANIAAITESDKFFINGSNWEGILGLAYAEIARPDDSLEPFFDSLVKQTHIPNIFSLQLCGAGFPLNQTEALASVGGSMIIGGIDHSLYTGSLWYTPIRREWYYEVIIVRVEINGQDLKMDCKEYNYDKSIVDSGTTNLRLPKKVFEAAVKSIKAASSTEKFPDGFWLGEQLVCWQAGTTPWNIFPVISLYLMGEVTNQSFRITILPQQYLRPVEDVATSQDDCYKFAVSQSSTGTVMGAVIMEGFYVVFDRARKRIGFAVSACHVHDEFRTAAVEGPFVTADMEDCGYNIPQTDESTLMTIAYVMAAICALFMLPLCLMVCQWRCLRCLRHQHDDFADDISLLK
# Sequence of Aβ fibers (Aβ 42) (P05067 672-713 limits assumed): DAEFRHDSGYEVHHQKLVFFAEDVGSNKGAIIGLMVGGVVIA
smiles,measurement,setting,value
"CC1=NN(c2ccccc2)C(=O)C1 [Edaravone, 3-methyl-1-phenyl-2-pyrazolin-5-one]",expressions of the synapse associated proteins,[1],much higher than in the control group
same,Morris water maze escape time,[2],reduction of escape time
same,Morris water maze times across platform,[2],increase in times across platform
same,open field probe distance,[3],significantly higher than in the control group
same,open field rearings,[3],significantly higher than in the control group
same,disaggregation of formed Aβ fibers (thioflavin T),Aβ fibers (Aβ 42),disaggregate the formed Aβ fibers or larger aggregates effectively
same,Aβ induced oxidative stress (ROS test),[4],reverse the Aβ induced oxidative stress
same,activity of β-secretase (BACE1),β-secretase (BACE1),significant decrease
same,"Aβ deposition in the brain, of the control group",[5],about 50%
same,activity of α-secretase,α-secretase,increase of the activity of α-secretase
same,"Aβ 40, Aβ 42 levels in brain extracts","Aβ 40, Aβ 42","significantly reduce the levels of Aβ at different, aggregation states"
same,cerebral ischemia-reperfusion injury area,[6]; previous studies,reduce cerebral ischemia-reperfusion injury area
same,gene expression of the Fas/FasL signaling pathway,[6]; transient focal ischemia in rats,suppress the gene expression of the Fas/FasL signaling pathway
